# Measurements from patent US7473790B2 (Pfizer Inc., priority 2003, dated 2009).
# Target: T1, HCV polymerase (Hepatitis C virus genotype 1b, UniProt P26663)
# T1 construct: 2.5 pmoles (0.15 μg) HCV polymerase protein in a final volume of 75 μL
# Assay: HCV polymerase primer/template-directed transcription assay (32P-GTP incorporation, filter binding)
# Type: biochemical
# Conditions: @ 20 uM compound; given where IC50 was impractical to calculate; read-out: percent inhibition
# How it was run: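 Recombinant genotype 1b polymerase (30 nM) extended biotin-dG12 primer on poly(rC)300 template with 1 μM GTP plus α-32P-GTP, pH 7.2, 10 mM MgCl2, 30 min at 30° C, 1% DMSO final. Products captured on DE filters and counted. IC50 fitted from triplicate cpm, with a tight-binding correction applied below 200 nM.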
# T1 sequence (P26663 2420-3010): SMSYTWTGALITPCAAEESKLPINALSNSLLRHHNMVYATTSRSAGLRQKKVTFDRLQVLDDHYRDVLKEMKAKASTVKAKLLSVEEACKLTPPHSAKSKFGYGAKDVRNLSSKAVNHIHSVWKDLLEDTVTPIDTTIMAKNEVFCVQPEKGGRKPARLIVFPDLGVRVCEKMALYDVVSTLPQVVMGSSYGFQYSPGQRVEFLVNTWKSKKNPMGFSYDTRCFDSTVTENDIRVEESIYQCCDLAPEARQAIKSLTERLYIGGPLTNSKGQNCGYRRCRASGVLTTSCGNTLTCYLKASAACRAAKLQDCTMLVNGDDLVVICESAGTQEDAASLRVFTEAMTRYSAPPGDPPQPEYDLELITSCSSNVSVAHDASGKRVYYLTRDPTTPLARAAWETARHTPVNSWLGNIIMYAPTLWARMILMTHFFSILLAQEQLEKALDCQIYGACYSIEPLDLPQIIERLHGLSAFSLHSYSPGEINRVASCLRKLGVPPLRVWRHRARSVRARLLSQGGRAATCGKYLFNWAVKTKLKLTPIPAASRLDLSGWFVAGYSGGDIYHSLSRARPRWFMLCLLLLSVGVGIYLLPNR
row,Structure (SMILES),inhibition at 20 µM [%]
1,"COc1ccc(CCC2(C3CCCC3)CC(OCc3cccnc3)=CC(=O)O2)cc1Cl (centres unmarked) [G(1), 6-[2-(3-chloro-4-methoxyphenyl)ethyl]-6-cyclopentyl-4-(pyridin-3-ylmethoxy)-5,6-dihydro-2H-pyran-2-one]",16
2,"COc1ccc(CCC2(C3CCCC3)CC(OCc3ccccn3)=CC(=O)O2)cc1Cl (centres unmarked) [G(2), 6-[2-(3-Chloro-4-methoxy-phenyl)-ethyl]-6-cyclopentyl-4-(pyridin-2-ylmethoxy)-5,6-dihydro-pyran-2-one]",3

# Same assay, conditions: @ 50 uM compound; given where IC50 was impractical to calculate; read-out: percent inhibition
row,Structure (SMILES),inhibition at 50 µM [%]
1,"O=C(O)CC(O)(CCNC(=O)CCc1ccco1)C1CCCC1 (centres unmarked) [H(5), 3-Cyclopentyl-5-(3-furan-2-yl-propionylamino)-3-hydroxy-pentanoic acid]",7
2,"O=C1CC(=O)OC(CSc2ncccn2)(C2CCCC2)C1 (centres unmarked) [I(1), 6-cyclopentyl-6-[(pyrimidin-2-ylthio)methyl]dihydro-2H-pyran-2,4(3H)-dione]",27
3,"O=C1CC(=O)OC(CSCc2ccco2)(C2CCCC2)C1 (centres unmarked) [I(2), 6-cyclopentyl-6-{[(2-furylmethyl)thio]methyl}dihydro-2H-pyran-2,4(3H)-dione]",22
4,"CCOc1ccc2nc(SCC3(C4CCCC4)CC(=O)CC(=O)O3)sc2c1 (centres unmarked) [I(3), 6-cyclopentyl-6-{[(6-ethoxy-1,3-benzothiazol-2-yl)thio]methyl}dihydro-2H-pyran-2,4(3H)-dione]",-2
5,"CC(C)c1ccc(SCC2(C3CCCC3)CC(=O)CC(=O)O2)cc1 (centres unmarked) [I(4), 6-cyclopentyl-6-{[(4-isopropylphenyl)thio]methyl}dihydro-2H-pyran-2,4(3H)-dione]",44

# Same assay, conditions: recombinant HCV polymerase; 30 minutes at 30° C.; concentration giving 50% inhibition of polymerase-directed transcription; read-out: IC50
row,Structure (SMILES),IC50 [µM]
1,"COC(=O)c1nnc(SC2=C(O)CC(CCc3ccc(OC)c(Cl)c3)(C3CCCC3)OC2=O)n1C (centres unmarked) [C(100), methyl 5-({6-[2-(3-chloro-4-methoxyphenyl)ethyl]-6-cyclopentyl-4-hydroxy-2-oxo-5,6-dihydro-2H-pyran-3-yl}thio)-4-methyl-4H-1,2,4-triazole-3-carboxylate]",0.032
2,"COc1ccc(CCC2(C3CCCC3)CC(O)=C(Sc3nccn3C)C(=O)O2)cc1Cl (centres unmarked) [C(101), 6-[2-(3-chloro-4-methoxyphenyl)ethyl]-6-cyclopentyl-4-hydroxy-3-[(1-methyl-1H-imidazol-2-yl)thio]-5,6-dihydro-2H-pyran-2-one]",0.14
3,"COc1ccc(CCC2(C3CCCC3)CC(O)=C(Sc3nncn3C)C(=O)O2)cc1Cl (centres unmarked) [C(102), 6-[2-(3-chloro-4-methoxyphenyl)ethyl]-6-cyclopentyl-4-hydroxy-3-[(4-methyl-4H-1,2,4-triazol-3-yl)thio]-5,6-dihydro-2H-pyran-2-one]",0.038
4,"COc1ccc(CCC2(C3CCCC3)CC(O)=C(Sc3ncc[nH]3)C(=O)O2)cc1Cl (centres unmarked) [C(103), 6-[2-(3-chloro-4-methoxyphenyl)ethyl]-6-cyclopentyl-4-hydroxy-3-(1H-imidazol-2-ylthio)-5,6-dihydro-2H-pyran-2-one]",0.24
5,"COc1ccc(CCC2(C3CCCC3)CC(O)=C(Sc3nnc(-c4ccncc4)o3)C(=O)O2)cc1Cl (centres unmarked) [C(104), 6-[2-(3-chloro-4-methoxyphenyl)ethyl]-6-cyclopentyl-4-hydroxy-3-[(5-pyridin-4-yl-1,3,4-oxadiazol-2-yl)thio]-5,6-dihydro-2H-pyran-2-one]",0.31
6,"COc1ccc(CCC2(C3CCCC3)CC(O)=C(Sc3nc(C)cc(C)c3C#N)C(=O)O2)cc1Cl (centres unmarked) [C(105), 2-({6-[2-(3-chloro-4-methoxyphenyl)ethyl]-6-cyclopentyl-4-hydroxy-2-oxo-5,6-dihydro-2H-pyran-3-yl}thio)-4,6-dimethylnicotinonitrile]",0.2
7,"COc1ccc(CCC2(C3CCCC3)CC(O)=C(Sc3nc(-c4ccccc4)cs3)C(=O)O2)cc1Cl (centres unmarked) [C(106), 6-[2-(3-chloro-4-methoxyphenyl)ethyl]-6-cyclopentyl-4-hydroxy-3-[(4-phenyl-1,3-thiazol-2-yl)thio]-5,6-dihydro-2H-pyran-2-one]",0.24
8,"COc1ccc(CCC2(C3CCCC3)CC(O)=C(SCc3ccccn3)C(=O)O2)cc1Cl (centres unmarked) [C(107), 6-[2-(3-chloro-4-methoxyphenyl)ethyl]-6-cyclorpentyl-4-hydroxy-3-[(pyridin-2-ylmethyl)thio]-5,6-dihydro-2H-pyran-2-one]",0.16
9,"COc1ccc(CCC2(C3CCCC3)CC(O)=C(Sc3cccc(Cl)c3Cl)C(=O)O2)cc1Cl (centres unmarked) [C(108), 6-[2-(3-chloro-4-methoxyphenyl)ethyl]-6-cyclopentyl-3-[(2,3-dichlorophenyl)thio]-4-hydroxy-5,6-dihydro-2H-pyran-2-one]",0.21
10,"COc1ccc(CCC2(C3CCCC3)CC(O)=C(SCCc3ccccn3)C(=O)O2)cc1Cl (centres unmarked) [C(109), 6-[2-(3-Chloro-4-methoxy-phenyl)-ethyl]-6-cyclopentyl-4-hydroxy-3-(2-pyridin-2-yl-ethylsulfanyl)-5,6-dihydro-pyran-2-one]",0.9
11,"CC(C)(C#N)c1ccc(OCC2(C3CCCC3)CC(=O)CC(=O)O2)cc1F (centres unmarked) [C(110), 2-[4-(2-Cyclopentyl-4,6-dioxo-tetrahydro-pyran-2-ylmethoxy)-2-fluoro-phenyl]-2-methyl-propionitrile]",7.6
12,"Cc1cnc2nc(CC3=C(O)CC(COc4ccc(C(C)(C)C#N)c(F)c4)(C4CCCC4)OC3=O)nn2c1 (centres unmarked) [C(111), 2-{4-[2-Cyclopentyl-4-hydroxy-5-(6-methyl-[1,2,4]triazolo[1,5-a]pyrimidin-2-ylmethyl)-6-oxo-3,6-dihydro-2H-pyran-2-ylmethoxy]-2-fluoro-phenyl}-2-methyl-propionitrile]",0.395
13,"Cc1cc(C)n2nc(CC3=C(O)CC(COc4ccc(C(C)(C)C#N)c(F)c4)(C4CCCC4)OC3=O)nc2n1 (centres unmarked) [C(112), 2-{4-[2-Cyclopentyl-5-(5,7-dimethyl-[1,2,4]triazolo[1,5-a]pyrimidin-2-ylmethyl)-4-hydroxy-6-oxo-3,6-dihydro-2H-pyran-2-ylmethoxy]-2-fluoro-phenyl}-2-methyl-propionitrile]",0.064
14,"N#CCC(=O)c1ccc(C#CC2(C3CCCC3)CC(=O)CC(=O)O2)cc1 (centres unmarked) [E(1), 3-[4-(2-Cyclopentyl-4,6-dioxo-tetrahydro-pyran-2-ylethynyl)-phenyl]-3-oxo-propionitrile]",22
15,"N#CCC(=O)c1ccc(C#CC2(C3CCCC3)CC(=O)CC(=O)O2)s1 (centres unmarked) [E(2), 3-[5-(2-Cyclopentyl-4,6-dioxo-tetrahydro-pyran-2-ylethynyl)-thiophen-2-yl]-3-oxo-propionitrile]",8.2
16,"N#CCc1cccc(C#CC2(C3CCCC3)CC(=O)CC(=O)O2)c1 (centres unmarked) [E(3), [3-(2-Cyclopentyl-4,6-dioxo-tetrahydro-pyran-2-ylethynyl)-phenyl]-acetonitrile]",65
17,"Cc1cc(C#CCCC2(C3CCCC3)CC(=O)CC(=O)O2)c(C)cc1O (centres unmarked) [F(1), 6-Cyclopentyl-6-[4-(4-hydroxy-2,5-dimethyl-phenyl)-but-3-ynyl]-dihydro-pyran-2,4-dione]",7.2
18,"NS(=O)(=O)c1cccc(C#CCCC2(C3CCCC3)CC(=O)CC(=O)O2)c1 (centres unmarked) [F(2), 3-[4-(2-Cyclopentyl-4,6-dioxo-tetrahydro-pyran-2-yl)-but-1-ynyl]-benzenesulfonamide]",7.2
19,"CSc1ccccc1C#CCCC1(C2CCCC2)CC(=O)CC(=O)O1 (centres unmarked) [F(3), 6-Cyclopentyl-6-[4-(2-methylsulfanyl-phenyl)-but-3-ynyl]-dihydro-pyran-2,4-dione]",8.4
20,"O=C1CC(=O)OC(CCC#Cc2ccccc2OC(F)(F)F)(C2CCCC2)C1 (centres unmarked) [F(4), 6-Cyclopentyl-6-[4-(2-trifluoromethoxy-phenyl)-but-3-ynyl]-dihydro-pyran-2,4-dione]",5.8
21,"O=C1CC(=O)OC(CCC#Cc2ccc(F)cc2)(C2CCCC2)C1 (centres unmarked) [F(5), 6-Cyclopentyl-6-[4-(4-fluoro-phenyl)-but-3-ynyl]-dihydro-pyran-2,4-dione]",25
22,"Cc1ccc(C#CCCC2(C3CCCC3)CC(=O)CC(=O)O2)cc1 (centres unmarked) [F(6), 6-Cyclopentyl-6-(4-p-tolyl-but-3-ynyl)-dihydro-pyran-2,4-dione]",83
23,"O=C1OC(CCC#Cc2cccc(O)c2)(C2CCCC2)CC(O)=C1Sc1nccs1 (centres unmarked) [F(7), 6-Cyclopentyl-4-hydroxy-6-[4-(3-hydroxy-phenyl)-but-3-ynyl]-3-(thiazol-2-ylsulfanyl)-5,6-dihydro-pyran-2-one]",7.5
24,"COC1=CC(=O)OC(CCc2ccc(OC)c(Cl)c2)(C2CCCC2)C1 (centres unmarked) [G(3), 6-[2-(3-Chloro-4-methoxy-phenyl)-ethyl]-6-cyclopentyl-4-methoxy-5,6-dihydro-pyran-2-one]",29
25,"O=C1CC(=O)OC(CCNC(=O)CCc2ccco2)(C2CCCC2)C1 (centres unmarked) [H(1), N-[2-(2-Cyclopentyl-4,6-dioxo-tetrahydro-pyran-2-yl)-ethyl]-3-furan-2-yl-propionamide]",1
26,"O=C1CC(=O)OC(CCNC(=O)c2ccco2)(C2CCCC2)C1 (centres unmarked) [H(2), Furan-2-carboxylic acid [2-(2-cyclopentyl-4,6-dioxo-tetrahydro-pyran-2-yl)-ethyl]-amide]",51
27,"O=C1CC(=O)OC(CCCNC(=O)CCc2ccco2)(C2CCCC2)C1 (centres unmarked) [H(3), N-[3-(2-Cyclopentyl-4,6-dioxo-tetrahydro-pyran-2-yl)-propyl]-3-furan-2-yl-propionamide]",1.2
28,"Cc1cc(C)n2nc(SC3=C(O)CC(CCNC(=O)CCc4ccco4)(C4CCCC4)OC3=O)nc2n1 (centres unmarked) [H(4), N-{2-[2-Cyclopentyl-5-(5,7-dimethyl-[1,2,4]triazolo[1,5-a]pyrimidin-2-ylsulfanyl)-4-hydroxy-6-oxo-3,6-dihydro-2H-pyran-2-yl]-ethyl}-3-furan-2-yl-propionamide]",60
